This is an account of results in patent US7335636B2, “SPRR1A and axonal regeneration” (Yale University, priority 2001, dated 2008).

“Also recorded” adds a separate entry of the source.

The test system of one series is E8 chick DRGs. Description: Neurite outgrowth of E8 chick DRGs triturated with SPRR1A-derived peptide. The series is classed as cell-based. The conditions noted are these: trituration, 6 hours after plating on laminin. From the text:
Herpes simplex virus preparation and protein trituration. The coding region of mouse SPRR1A was amplified by PCR with an in-frame C-terminal Myc epitope and ligated to the pHSVprPUC vector. Similarly, the S100C coding region with a Myc tag was ligated to pHSVprPUC vector. The resulting plasmids were transfected into 2-2 cells with Fugene and then superinfected with 5 dl 1.2 herpes simplex virus (HSV) helper virus 1 d later as described previously (Nakamura et al., 1998; Takahashi et al., 1998, 1999). Recombinant virus was amplified through three passages and stored at −80° C. Freshly dissociated DRG neurons were allowed to adhere to cultured dishes for 30 min and then incubated with HSV preparations encoding for SPRR1A, S100C, enhanced green fluorescent protein (EGFP), or Nogo receptor. […]
(§1) DRG cultures and neurite outgrowth analysis. […] After 6-36 hr, cells were fixed and stained, and neurite outgrowth was quantified. Images of each culture were captured with Olympix Software and analyzed with Scion Image (Jin and Strittmatter, 1997; GrandPre et al., 2000; Fournier et al., 2001). The total neurite length for each neuron was determined for 50-100 neurons in each experiment. […]
An SPRR1A-derived peptide acts as an agent to promote axon regeneration. […] This 24 amino acid peptide was triturated into E8 chick DRGs and neurite length was measured 6 hours after the cells were plated on laminin (FIG. 8). […]

In the next series the test system is SPRR1A. Description: Immunoblot for SPRR1A protein in oligonucleotide-treated adult mouse DRG cultures. The series is classed as cell-based. Conditions: preconditioned adult DRG neurons, 36 hr culture with oligonucleotide 10-50 μM. On the technique in general: A western blot detects proteins with antibodies after separation by electrophoresis.
For the next series, the system named is adult mouse DRG neurons. Description: Antisense experiment: neurite outgrowth and branching of adult mouse DRG cultures. It is filed as cell-based. As for the experimental part:
DRG cultures and neurite outgrowth analysis. Embryonic day 7 (E7) chick, embryonic day 13 chick, or adult mouse DRGs were dissected and dissociated with 0.25% trypsin for 15 min at 37° C. For adult mouse DRG preparations, preincubation with 1 mg/ml collagenase was included. For preconditioned adult mouse DRG cultures, sciatic nerve lesions were performed 4 d before death and L3-L5 DRG dissection. Dissociated cells were preplated on tissue culture-treated plastic dishes for 1 hr at 37° C. Non-adherent cells (predominantly neurons) were collected and plated on plastic chamber slides coated with poly-L-lysine (100 μg)/laminin (10 μg/ml). In some cases, the substrate was coated with 45 ng/mm^2 bovine CNS myelin or 34 ng/mm^2 purified GST-Nogo-66 protein as described previously (Jin and Strittmatter, 1997; GrandPre et al., 2000; Fournier et al., 2001). After 6-36 hr, cells were fixed and stained, and neurite outgrowth was quantified. Images of each culture were captured with Olympix Software and analyzed with Scion Image (Jin and Strittmatter, 1997; GrandPre et al., 2000; Fournier et al., 2001). The total neurite length for each neuron was determined for 50-100 neurons in each experiment. The total number of branch points was divided by the total neurite length to obtain a branching index.
Antisense experiment. Phosphorothioate sense and antisense oligonucleotides spanning the translation initiation site (italic type) of the mouse sprr1a sequence (sense, p-thio-[…] (SEQ ID NO:4); antisense, p-thio-[…] (SEQ ID NO:5)) were generated. Adult mouse DRG cultures were incubated with purified oligonucleotides at concentrations of 10-50 μM. Immunoblot and immunohistological analysis was performed after 36 hr of culture.

In another series the test system is F-actin. Description: Actin cosedimentation and immunoprecipitation assays. It is filed as binding. Conditions: in the presence or absence of S100C protein. As for the experimental part: Actin cosedimentation assay. The actin cosedimentation protocol has been described previously (Gonzalez et al., 1998; Sakaguchi et al., 2000). Purified monomeric actin (G-actin, 25 μM; Cytoskeleton, Denver, Colo.) was incubated with recombinant SPRR1A (200 nM), GST-S100C (2 μM), or GST (2 μM) in an actin polymerization buffer (5 mM Tris, pH 8.0, 1.0 mM CaCl2, 1.0 mM DTT, 0.2 mM ATP, 100 mM KCl, 2.0 mM MgCl2) at room temperature for 60 min. Polymerized actin was sedimented by centrifugation at […] for 1 hr. Equal volumes of the particulate and supernatant fractions were analyzed by SDS-PAGE and immunoblotting.

In the next series the test system is chick E7 DRG neurons. Description: Neurite outgrowth of embryonic chick DRG neurons after HSV infection or protein trituration. It is filed as cell-based.
From the text: Herpes simplex virus preparation and protein trituration. The coding region of mouse SPRR1A was amplified by PCR with an in-frame C-terminal Myc epitope and ligated to the pHSVprPUC vector. Similarly, the S100C coding region with a Myc tag was ligated to pHSVprPUC vector. The resulting plasmids were transfected into 2-2 cells with Fugene and then superinfected with 5 dl 1.2 herpes simplex virus (HSV) helper virus 1 d later as described previously (Nakamura et al., 1998; Takahashi et al., 1998, 1999). Recombinant virus was amplified through three passages and stored at −80° C. Freshly dissociated DRG neurons were allowed to adhere to cultured dishes for 30 min and then incubated with HSV preparations encoding for SPRR1A, S100C, enhanced green fluorescent protein (EGFP), or Nogo receptor. Recombinant SPRR1A and S100C protein were triturated into dissociated DRGs by repetitive pipetting in the presence of 1 mg/ml of protein as described previously (Jin and Strittmatter, 1997).
as §1

Turning to “acetyl-HPKAPEPCNPKVPEPCQPKVPEPC-amide (Ac-HPKAPEPCNPKVPEPCQPKVPEPC-NH2; cysteine pairing not given here; listed as Mus musculus) [SEQ ID NO:3, 24 amino acid peptide consisting of three XPKXPEPC octapeptide repeats of SPRR1A]”, the “enhancement of average neurite outgrowth” value with E8 chick DRGs (5-25 μM peptide) is 1.7 fold. Further, the “enhancement of neurite outgrowth” value in the series on E8 chick DRGs (100-500 μM peptide) is on record as 2.5 fold.
For “p-thio-GTGGGAACTCATGGTTAGAT (all phosphorothioate, sugars by position and methylation of C not given here) [antisense oligonucleotide]”, in the series on SPRR1A, the “SPRR1A protein level (immunoblot, immunohistochemistry)” value was “significantly and selectively decreased; also recorded: decreases to nearly basal levels”. For the same molecule, the “neurite length, preconditioned neurons” value in the series on adult mouse DRG neurons (adult preconditioned DRG neurons, 36 hr, vs sense-treated) is given as “significant decrease in neurite length”. In the series on adult mouse DRG neurons (adult preconditioned DRG neurons, vs sense-treated), the “axonal branching index, preconditioned neurons” value is “marked increase”. The “effect on naive neurons (do not express SPRR1A)” value in the series on adult mouse DRG neurons (naive adult mouse DRG neurons) is listed as “lack of effect”.

B1: SPRR1A: Recombinant mouse small proline-rich repeat protein SPRR1A purified from transformed Escherichia coli (protein, listed as Mus musculus)
chain: MSSHQQKQPCTVPPQLHQQQVKQPCQPPPQEPCAPKTKDPCHPVPEPCNPKGPEPCHPKAPEPCHPKAPEPCNPKVPEPCQPKVPEPCQPKVPEPCNPKVPEPCQPKAPEPCHPKAPEPCHPVVPEPCPSTVTPSPYQQKTKQK
As for B1, in the series with F-actin, the “direct physical association with F-actin” value is recorded as “no direct physical association”. Moreover, the “neurite outgrowth, protein added to the culture medium without trituration” value in the series with chick E7 DRG neurons (no trituration) is on record as “does not alter outgrowth”. In addition, the “neurite outgrowth in neurons triturated with purified protein” value in the series on chick E7 DRG neurons (recombinant protein triturated into DRG neurons, 1 mg/ml) was “increase in neurite outgrowth”.
